Experimental data as given in patent US12365692B2, “6-hydroxy-8-oxatricyclo[3.2.1.02,4]octane-2-carboxamide derivatives for inducing chondrogenesis for treating joint damage” (NOVARTIS AG, priority 2018, dated 2025).

System: ALP in NHAC (normal human articular chondrocytes)
Assay: Alkaline Phosphatase (ALP) activity assay: ALP staining and quantitation in NHACs (prevention of chondrocyte hypertrophy)
Type: cell-based
Conditions: Chondrocyte, 288 h, human IL-1 beta 10 ng/mL, 12 days; for IC50: Fast Blue RR staining, high content imaging; for Emax: read-out: ALP in NHAC (% Efficacy)
Outline: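 NHACs were plated with test compound in DMEM containing 10% FBS, and human IL-1 beta was added 5 h later at 10 ng/mL final. Cultures were kept 12 days at 37° C, 5% CO2. Cells were then fixed, ALP-stained with Fast Blue RR/Naphthol AS-MX, and hypertrophic cells were imaged and quantified by high-content imaging.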

Structure (SMILES) | IC50 [µM] | Emax [%]
Cn1cc([C@@]23C[C@]2(C(=O)Nc2cc(C(F)(F)F)cc(C4CC4)n2)[C@H]2C[C@H](O)[C@@H]3O2)c(C(F)(F)F)n1 (racemic) [Example 46, rac-(1R,2R,4S,5R,6S)—N-(6-cyclopropyl-4-(trifluoromethyl)pyridin-2-yl)-6-hydroxy-4-(1-methyl-3-(trifluoromethyl)-1H-pyrazol-4-yl)-8-oxatricyclo[3.2.1.02,4]octane-2-carboxamide] | 27 | 82
Cn1cc([C@@]23C[C@]2(C(=O)Nc2ccc(C(F)(F)F)c(Cl)c2)[C@H]2C[C@H](O)[C@@H]3O2)c(C(F)(F)F)n1 (racemic) [Example 40, rac-(1R,2R,4S,5R,6S)—N-(3-chloro-4-(trifluoromethyl)phenyl)-6-hydroxy-4-(1-methyl-3-(trifluoromethyl)-1H-pyrazol-4-yl)-8-oxatricyclo[3.2.1.02,4]octane-2-carboxamide] | 9.5 | 91
COc1cc([C@@]23C[C@]2(C(=O)Nc2cc(C(F)(F)F)ccc2F)[C@H]2C[C@H](O)[C@@H]3O2)ccn1 (racemic) [Example 33, rac-(1R,2R,4S,5R,6S)—N-(2-fluoro-5-(trifluoromethyl)phenyl)-6-hydroxy-4-(2-methoxypyridin-4-yl)-8-oxatricyclo[3.2.1.02,4]octane-2-carboxamide] | > 30 | 12
Cn1cc([C@@]23C[C@]2(C(=O)Nc2ccc(C(F)(F)F)c(F)c2)[C@H]2C[C@H](O)[C@@H]3O2)c(C(F)(F)F)n1 (racemic) [Example 41, rac-(1R,2R,4S,5R,6S)-N-(3-fluoro-4-(trifluoromethyl)phenyl)-6-hydroxy-4-(1-methyl-3-(trifluoromethyl)-1H-pyrazol-4-yl)-8-oxatricyclo[3.2.1.02,4]octane-2-carboxamide] | 3.1 | 84
COc1cc([C@@]23C[C@]2(C(=O)Nc2cc(C(F)(F)F)ccc2C#N)[C@H]2C[C@H](O)[C@@H]3O2)ccn1 (racemic) [Example 39, rac-(1R,2R,4S,5R,6S)—N-(2-cyano-5-(trifluoromethyl)phenyl)-6-hydroxy-4-(2-methoxypyridin-4-yl)-8-oxatricyclo[3.2.1.02,4]octane-2-carboxamide] | 0.081 | 92
Cn1cc([C@@]23C[C@]2(C(=O)Nc2cccc(C(F)(F)F)c2F)[C@H]2C[C@H](O)[C@@H]3O2)c(C(F)(F)F)n1 (racemic) [Example 54, rac-(1R,2R,4S,5R,6S)—N-(2-fluoro-3-(trifluoromethyl)phenyl)-6-hydroxy-4-(1-methyl-3-(trifluoromethyl)-1H-pyrazol-4-yl)-8-oxatricyclo[3.2.1.02,4]octane-2-carboxamide] | > 30 | 7
COc1cc([C@@]23C[C@]2(C(=O)Nc2cc(C(F)(F)F)cc(C(F)(F)F)c2)[C@H]2C[C@H](O)[C@@H]3O2)ccn1 (racemic) [Example 37, rac-(1R,2R,4S,5R,6S)—N-(3,5-bis(trifluoromethyl)phenyl)-6-hydroxy-4-(2-methoxypyridin-4-yl)-8-oxatricyclo[3.2.1.02,4]octane-2-carboxamide] | > 30 | 0
O=C(Nc1cc(C(F)(F)F)ccn1)[C@]12C[C@@]1(c1cccc(C(F)(F)F)c1)[C@H]1O[C@@H]2C[C@@H]1O (racemic) [Example 82, rac-(1R,2R,4S,5R,6S)-6-hydroxy-4-(3-(trifluoromethyl)phenyl)-N-(4-(trifluoromethyl)pyridin-2-yl)-8-oxatricyclo[3.2.1.02,4]octane-2-carboxamide] | > 30 | 36
COc1cc([C@@]23C[C@]2(C(=O)Nc2cc(C(F)(F)F)cc(Cl)n2)[C@H]2C[C@H](O)[C@@H]3O2)ccn1 (racemic) [Example 21, rac-(1R,2R,4S,5R,6S)—N-(6-chloro-4-(trifluoromethyl)pyridin-2-yl)-6-hydroxy-4-(2-methoxypyridin-4-yl)-8-oxatricyclo[3.2.1.02,4]octane-2-carboxamide] | > 30 | 0
O=C(Nc1ccc(F)c(C(F)(F)F)c1)[C@]12C[C@@]1(c1ccnc(F)c1)[C@H]1O[C@@H]2C[C@@H]1O (racemic) [Example 15, rac-(1R,2R,4S,5R,6S)—N-(4-fluoro-3-(trifluoromethyl)phenyl)-4-(2-fluoropyridin-4-yl)-6-hydroxy-8-oxatricyclo[3.2.1.02,4]octane-2-carboxamide] | > 30 | 5
Cc1c(NC(=O)[C@]23C[C@@]2(c2ccnc(F)c2)[C@H]2O[C@@H]3C[C@@H]2O)cccc1C(F)(F)F (racemic) [Example 10, rac-(1R,2R,4S,5R,6S)-4-(2-fluoropyridin-4-yl)-6-hydroxy-N-(2-methyl-3-(trifluoromethyl)phenyl)-8-oxatricyclo[3.2.1.02,4]octane-2-carboxamide] | > 30 | 6
COc1cc([C@@]23C[C@]2(C(=O)Nc2cc(C(F)(F)F)ccn2)[C@H]2C[C@H](O)[C@@H]3O2)ccn1 (racemic) [Example 20, rac-(1R,2R,4S,5R,6S)-6-hydroxy-4-(2-methoxypyridin-4-yl)-N-(4-(trifluoromethyl)pyridin-2-yl)-8-oxatricyclo[3.2.1.02,4]octane-2-carboxamide] | > 30 | 24
Cn1cc([C@@]23C[C@]2(C(=O)Nc2cc(C(F)(F)F)cc(Cl)n2)[C@H]2C[C@H](O)[C@@H]3O2)c(C(F)(F)F)n1 (racemic) [Example 44, rac-(1R,2R,4S,5R,6S)—N-(6-chloro-4-(trifluoromethyl)pyridin-2-yl)-6-hydroxy-4-(1-methyl-3-(trifluoromethyl)-1H-pyrazol-4-yl)-8-oxatricyclo[3.2.1.02,4]octane-2-carboxamide] | > 30 | 37
Cn1cc([C@@]23C[C@]2(C(=O)Nc2cc(C(F)(F)F)ccc2C#N)[C@H]2C[C@H](O)[C@@H]3O2)c(C(F)(F)F)n1 (racemic) [Example 69, rac-(1R,2R,4S,5R,6S)—N-(2-cyano-5-(trifluoromethyl)phenyl)-6-hydroxy-4-(1-methyl-3-(trifluoromethyl)-1H-pyrazol-4-yl)-8-oxatricyclo[3.2.1.02,4]octane-2-carboxamide] | 1.8 | 88
O=C(Nc1cccc(C(F)(F)F)c1)[C@]12C[C@@]1(c1ccnc(F)c1)[C@H]1O[C@@H]2C[C@@H]1O (racemic) [Example 9, rac-(1R,2R,4S,5R,6S)-4-(2-fluoropyridin-4-yl)-6-hydroxy-N-(3-(trifluoromethyl)phenyl)-8-oxatricyclo[3.2.1.02,4]octane-2-carboxamide] | > 30 | 32
Cn1cc([C@@]23C[C@]2(C(=O)Nc2cc(F)cc(C(F)(F)F)c2)[C@H]2C[C@H](O)[C@@H]3O2)c(C(F)(F)F)n1 (racemic) [Example 56, rac-(1R,2R,4S,5R,6S)—N-(3-fluoro-5-(trifluoromethyl)phenyl)-6-hydroxy-4-(1-methyl-3-(trifluoromethyl)-1H-pyrazol-4-yl)-8-oxatricyclo[3.2.1.02,4]octane-2-carboxamide] | > 30 | 30
Cn1cc([C@@]23C[C@]2(C(=O)Nc2cc(C(F)(F)F)cc(C(F)(F)F)c2)[C@H]2C[C@H](O)[C@@H]3O2)c(C(F)(F)F)n1 (racemic) [Example 63, rac-(1R,2R,4S,5R,6S)—N-(3,5-bis(trifluoromethyl)phenyl)-6-hydroxy-4-(1-methyl-3-(trifluoromethyl)-1H-pyrazol-4-yl)-8-oxatricyclo[3.2.1.02,4]octane-2-carboxamide] | 29 | 56
Cc1cc(C(F)(F)F)cc(NC(=O)[C@]23C[C@@]2(c2cn(C)nc2C(F)(F)F)[C@H]2O[C@@H]3C[C@@H]2O)n1 (racemic) [Example 47, rac-(1R,2R,4S,5R,6S)-6-hydroxy-4-(1-methyl-3-(trifluoromethyl)-1H-pyrazol-4-yl)-N-(6-methyl-4-(trifluoromethyl)pyridin-2-yl)-8-oxatricyclo[3.2.1.02,4]octane-2-carboxamide] | > 30 | 36
O=C(Nc1cccc(C(F)(F)F)c1)[C@]12C[C@@]1(c1ccnc(C(F)(F)F)c1)[C@H]1O[C@@H]2C[C@@H]1O (racemic) [Example 66, rac-(1R,2R,4S,5R,6S)-6-hydroxy-N-(3-(trifluoromethyl)phenyl)-4-(2-(trifluoromethyl)pyridin-4-yl)-8-oxatricyclo[3.2.1.02,4]octane-2-carboxamide] | 24 | 62
COc1cc([C@@]23C[C@]2(C(=O)Nc2ccc(OC)c(C(F)(F)F)c2)[C@H]2C[C@H](O)[C@@H]3O2)ccn1 (racemic) [Example 34, rac-(1R,2R,4S,5R,6S)-6-hydroxy-N-(4-methoxy-3-(trifluoromethyl)phenyl)-4-(2-methoxypyridin-4-yl)-8-oxatricyclo[3.2.1.02,4]octane-2-carboxamide] | > 30 | 0
COc1cc([C@@]23C[C@]2(C(=O)Nc2ccc(C(F)(F)F)cc2)[C@H]2C[C@H](O)[C@@H]3O2)ccn1 (racemic) [Example 76, rac-(1R,2R,4S,5R,6S)-6-hydroxy-4-(2-methoxypyridin-4-yl)-N-(4-(trifluoromethyl)phenyl)-8-oxatricyclo[3.2.1.02,4]octane-2-carboxamide] | 15 | 57
COc1cc([C@@]23C[C@]2(C(=O)Nc2cc(Cl)cc(C(F)(F)F)c2)[C@H]2C[C@H](O)[C@@H]3O2)ccn1 (racemic) [Example 71, rac-(1R,2R,4S,5R,6S)—N-(3-chloro-5-(trifluoromethyl)phenyl)-6-hydroxy-4-(2-methoxypyridin-4-yl)-8-oxatricyclo[3.2.1.02,4]octane-2-carboxamide] | > 30 | 9
